Data published in patent US9127078B2, “Methods and compositions using splicing regulatory proteins involved in tumor suppression” (The Trustees of the University of Pennsylvania, priority 2008, dated 2015).

Test system: PKC-neg-40B-Luc minigene in 293T cells
Experiment: Luciferase splicing reporter screen of the LOPAC 1280 library
Type: cell-based
Conditions: for Avg Med norm: luciferase fold-increase over the Average Median norm for each plate exclusive of Esrp1 control wells; for Avg Med norm / Avg DMSO Norm: 293T reporter cells, 24 hours; for Avg DMSO Norm: luciferase fold-increase over the Average control (DMSO) norm; for luciferase readings versus background reading: LOPAC screen, result in words
Description: Briefly, compounds from the LOPAC™ library were dissolved in DMSO. 293T cells (which express predominantly FGFR2-IIIc) which stably express the PKC-neg-40B-Luc minigene, as described in Example 1, were incubated with the compounds or with a DMSO control for 24 hours. After the incubation period, BriteLite luciferase readout reagent was added to each well and the plates were read on an Analyst HT multimode plate reader (Molecular Devices). As positive controls, we also added a cDNA encoding the mouse Esrp1 protein to individual wells on each plate.
The results were then ranked in order from largest fold change over background down to the DMSO blank.

Compound | Avg Med norm [fold] | Avg DMSO Norm [fold] | luciferase readings versus background reading
CNCC(O)c1ccc(O)c(O)c1.Cl (racemic) [(±)-Epinephrine hydrochloride] | 1.714 | 1.674 | 
CC(C)NCC(O)c1ccc(O)c(O)c1.Cl (racemic) [(±)-Isoproterenol hydrochloride] | 1.713 | 1.663 | 
NC(N)=NC(=O)c1nc(Cl)c(N2CCCCCC2)nc1N [5-(N,N-hexamethylene)amiloride] | 1.643 | 1.762 | 
CNC[C@H](O)c1ccc(O)c(O)c1.O=C(O)C(O)C(O)C(=O)O [(−)-Epinephrine bitartrate] | 1.696 | 1.654 | 
C[C@H]1C[C@H]2[C@@H]3CCC4=CC(=O)C=C[C@]4(C)[C@@]3(Cl)[C@@H](O)C[C@]2(C)[C@@]1(O)C(=O)CO [Beclomethasone, 9alpha-Chloro-16beta-methyl-1,4-pregnadiene-11beta,17alpha,-21triol-3,20-dione] | 1.861 | 1.996 | significantly over the background reading
Clc1ccccc1C(c1ccccc1)(c1ccccc1)n1ccnc1 [Clotrimazole, 1-(o-Chlorotrityl)-imidazole] | 1.671 | 1.792 | 
CCNC(=O)[C@H]1O[C@@H](n2cnc3c(NCc4ccccc4)ncnc32)[C@H](O)[C@@H]1O [N6-Benzyl-5′-N-ethylcarboxamidoadenosine] | 1.822 | 1.953 | significantly over the background reading
OC[C@H]1O[C@@H](n2cnc3c(Nc4ccccc4)ncnc32)[C@H](O)[C@@H]1O [N6-Phenyladenosine] | 1.942 | 2.095 | 
COc1cccc(-c2cc(=O)c3ccccc3o2)c1N [PD 98,059, 2-(2-Amino-3-methoxyphenyl)-4H-1-benzopyran-4-one] | 1.783 | 1.923 | 
CCCCCCCCCCCCCC(=O)O[C@@H]1[C@@H](C)[C@@]2(O)[C@@H](C=C(CO)C[C@]3(O)C(=O)C(C)=C[C@@H]23)[C@@H]2C(C)(C)[C@]12OC(C)=O [Phorbol 12-myristate 13-acetate] | 3.825 | 4.122 | significantly over the background reading
COc1cc([C@@H]2c3cc4c(cc3[C@H](O)[C@H]3COC(=O)[C@H]23)OCO4)cc(OC)c1OC [Podophyllotoxin] | 2.036 | 1.985 | significantly over the background reading
CC(C)NC[C@H](O)c1ccc(O)c(O)c1.O=C(O)C(O)C(O)C(=O)O [R(−)-Isoproterenol(+)-bitartrate] | 1.996 | 1.943 | significantly over the background reading
COc1cccc(NC(=O)/C=C/c2ccc(Cl)cc2)c1 [SB-366791] | 1.665 | 1.795 | 
Cc1ccc(O)c(N=Nc2ccccc2)n1 [SIB 1757, 6-Methyl-2-(phenylazo)-3-pyridinol] | 2.598 | 2.803 | significantly over the background reading
